The source of these data is patent US20260308149A1, “NOVEL CARBOXAMIDE DERIVATIVES” (ANGELINI PHARMA S.P.A., priority 2023, published 2026).

pEC50: −log10 of the molar value.

The target in the experiment is T1, human Kv7.2 (Homo sapiens, UniProt O43526).
T1 construct: expressed in transfected cells
T1 sequence (O43526 whole entry): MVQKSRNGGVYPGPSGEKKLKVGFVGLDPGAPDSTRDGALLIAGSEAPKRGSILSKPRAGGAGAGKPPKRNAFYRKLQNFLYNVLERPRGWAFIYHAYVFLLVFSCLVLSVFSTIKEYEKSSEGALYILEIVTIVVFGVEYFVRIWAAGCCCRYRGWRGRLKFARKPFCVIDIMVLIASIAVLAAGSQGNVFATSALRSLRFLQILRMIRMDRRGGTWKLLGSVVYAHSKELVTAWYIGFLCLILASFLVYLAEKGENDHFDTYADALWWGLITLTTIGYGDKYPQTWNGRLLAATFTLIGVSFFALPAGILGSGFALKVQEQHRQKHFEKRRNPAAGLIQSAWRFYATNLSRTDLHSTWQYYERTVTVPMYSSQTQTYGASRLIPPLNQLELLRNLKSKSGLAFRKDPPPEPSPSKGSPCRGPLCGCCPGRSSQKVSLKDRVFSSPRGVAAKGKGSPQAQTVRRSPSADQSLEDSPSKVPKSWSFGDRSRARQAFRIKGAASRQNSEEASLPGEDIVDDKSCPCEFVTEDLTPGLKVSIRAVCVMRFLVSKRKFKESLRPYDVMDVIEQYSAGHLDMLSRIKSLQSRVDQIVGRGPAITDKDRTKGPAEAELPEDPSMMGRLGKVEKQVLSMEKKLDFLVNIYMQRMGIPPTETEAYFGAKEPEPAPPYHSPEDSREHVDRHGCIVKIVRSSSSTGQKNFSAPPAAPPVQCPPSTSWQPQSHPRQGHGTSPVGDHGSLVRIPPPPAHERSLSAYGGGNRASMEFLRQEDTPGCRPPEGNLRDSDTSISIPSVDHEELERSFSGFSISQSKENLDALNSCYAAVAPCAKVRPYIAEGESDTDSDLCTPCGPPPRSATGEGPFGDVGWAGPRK
The experiment can be described thus: activation (potentiation) of Kv7.2 current, SyncroPatch 384 electrophysiology in CHO cells stably expressing human Kv7.2. In kind it is cell-based. As to conditions: human Kv7.2 in CHO cells; in presence of 5.6 μM zinc pyrithione; % activation relative to 30 μM ML-213. Here is the method:
The potency of Kv7 potentiators was determined using the SyncroPatch 384 (Nanion) high throughput electrophysiology platform.
CHO cells stably expressing either human Kv7.2, Kv7.4 or Kv7.5/7.3 under a constitutive CMV promoter were used for these studies. Cells were maintained in F12 Hams+1 mM L-glutamine (Hyclone) supplemented with 10% FBS (Sigma), 0.3×NEAA (Non-essential Gamino-acids) and 400 ug/ml G418 at 37° C. in 5% CO2. Cells were cultured in T-225 flasks (Nunc) for 2-3 days to reach 85-95% confluence prior to electrophysiological recording.
Earle's balanced salt solution (in mM): 135 NaCl, 5.4 KCl, 5 Glucose, 2 CaCl2), 1 MgCl2, 5 HEPES, pH 7.4. Seal enhancer solution (in mM): 90 NaCl, 3 KCl, 35 CaCl2), 10 MgCl2, 10 HEPES, pH 7.4. Extracellular recording solution (in mM): 71 NaCl, 70 NMDG, 13 KCl. 5 Glucose, 2 CaCl2, 1 MgCl2, 10 HEPES, pH 7.4. Intracellular recording solution (in mM): 130 KF, 20 KCl, 4 EGTA, 10 HEPES, 2 EDTA, 0.01 Escin, pH 7.2.
Cells were harvested for electrophysiological recording upon reaching appropriate confluence. Cells were first washed in DPBS (Hyclone, Cat #SH30028.03) and then 2 ml of Accutase (MP Biomedicals #1000449) was added at 28° C. until ~90% of cells were suspended. F12 HAM's media+1 mM L-glutamine (Hyclone, SH30026.02) was then added to the flask to dilute the accutase. Cells were then triturated until a single cell suspension was achieved, a cell count was performed, and cells were centrifuged for 2 min. at 1,000 rpm. Media was then aspirated, and cells were resuspended in Earle's balanced salt solution to a concentration of 0.75×10^6 cells/ml and allowed to recover for 25 min at 10° C.
At the beginning of each assay, 20 μl of cell suspension was dispensed into each well of a multi-hole 384-well SyncroPatch chip by the onboard pipettor. Cell sealing was initiated, and seal enhancer solution was added to facilitate seal formation. Upon completion of sealing, cells were washed 3 times with extracellular recording solution and the assay voltage protocol was started. Human Kv7.2, Kv7.4 or Kv7.5/7.3 channels were evaluated using a voltage protocol in which cells were voltage-clamped at a holding potential of −60 mV. Potassium currents were continuously activated with a series of three voltage steps to −30 mV for 3 seconds, 40 mV for 1 second and −90 mV for 4 seconds with 12 seconds between successive voltage sweeps. Potassium currents were measured from the −90 mV repolarizing step. Baseline current was assessed for 3.5 minutes prior to the addition of 5.6 μM zinc pyrithione (1 μM for Kv7.4). Kv7.2, Kv7.4 or Kv7.5/7.3 current in the presence of zinc pyrithione was acquired over five minutes to allow channels to reach steady state activity prior to addition of test agents. Channel activity was monitored for three minutes preceding the addition of 30 μM ML-213 (3 minutes) to achieve maximum activation. 150 mM TEA with 10 μM XE-991 was applied for 2 minutes to measure the leak current during maximum inhibition of Kv7.2, Kv7.4 or Kv7.5/7.3 channels.
Data were collected on the SyncroPatch platform using PatchControl software (Nanion) and processed and analyzed using DataControl Software (Nanion). Percent activation was calculated from potassium current as follows: The average current for the 5 sweeps in the presence of zinc pyrithione immediately preceding test agent addition was taken as the ‘control’ data. Likewise, the average potassium current in the presence of test agents 5 sweeps immediately preceding addition of 30 μM ML-213 was determined for ‘drug’ data. The average potassium current 5 sweeps immediately prior to addition of 150 mM TEA+10 μM XE-991 was determined for ‘max activation’ data while average currents from 5 sweeps immediately following addition of TEA was determined for ‘max inhibition’ data. Percent activation for each of the 384-wells of a sealchip was calculated as ((‘drug’−‘max inhibition’)/(‘max activation’−‘max inhibition’))*100 with Pipeline Pilot (Accelrys). […]
As to `CC(C#N)(CNC(=O)[C@H]1C[C@@H]1c1ccccc1)c1cccc(C(F)(F)F)c1` (mixture of isomers) [Example 31, rac-(1S,2S)-N-[2-cyano-2-[3-(trifluoromethyl)phenyl]propyl]-2-phenyl-cyclopropanecarboxamide], the pEC50 was 5.60.

For the molecule `N#Cc1cccc([C@]2(CNC(=O)[C@H]3C[C@@H]3C3CCC3)CCO2)c1` (mixture of isomers) [Example 101, (1SR,2RS)—N-[[(2S)-2-(3-cyanophenyl)oxetan-2-yl]methyl]-2-cyclobutyl-cyclopropanecarboxamide], the negative-log EC50 (pEC50) was 6.59.

Turning to `O=C(NCC1(c2ccnc(OC(F)F)c2)CCO1)C1CC12CCC(F)(F)CC2` (centres unmarked) [Example 118, N-[[2-[2-(difluoromethoxy)-4-pyridyl]oxetan-2-yl]methyl]-6,6-difluoro-spiro[2.5]octane-2-carboxamide], the negative-log EC50 (pEC50) is 5.26.

For `CCc1cc(C2(CNC(=O)[C@H]3C[C@@H]3c3ccccc3)CCO2)ccn1` (stereo partly drawn) [Example 121, (1S,2S)—N-[[2-(2-ethyl-4-pyridyl)oxetan-2-yl]methyl]-2-phenyl-cyclopropanecarboxamide], the pEC50 was 5.60.

On to `COC(C)(CNC(=O)[C@H]1C[C@@H]1c1ccccc1)c1cccc(Cl)c1` (mixture of isomers) [Example 1, rac-(1S,2S)-N-[2-(3-chlorophenyl)-2-methoxy-propyl]-2-phenyl-cyclopropanecarboxamide], for which the pEC50 is 6.77.

As to `O=C(NCC1(c2cccc(Cl)n2)CCO1)[C@H]1C[C@@H]1c1ccccc1` (stereo partly drawn) [Example 76, (1S,2S)—N-[[2-(6-chloro-2-pyridyl)oxetan-2-yl]methyl]-2-phenyl-cyclopropanecarboxamide], the pEC50 was 5.76.

For the molecule `N#Cc1cccc([C@]2(CNC(=O)CC34CCC(CC3)C4)CCO2)c1` [Example 109, N-[[(2S)-2-(3-cyanophenyl)oxetan-2-yl]methyl]-2-norbornan-1-yl-acetamide], the pEC50 is 6.15.

On to `O=C(NC[C@]1(c2cccc(Cl)c2)OCC1(F)F)[C@H]1C[C@@H]1c1ccccc1` (stereo in doubt) [Example 42, (1S,2S)-N-[[(2S)-2-(3-chlorophenyl)-3,3-difluoro-oxetan-2-yl]methyl]-2-phenyl-cyclopropanecarboxamide], for which the negative-log EC50 (pEC50) was 6.20.

Turning to `CC(C#N)(CNC(=O)[C@H]1C[C@@H]1c1ccccc1)c1cccc(Cl)c1` (mixture of isomers) [Example 37, rac-(1S,2S)-N-[2-(3-chlorophenyl)-2-cyano-propyl]-2-phenyl-cyclopropanecarboxamide], the pEC50 was 5.88.

`COC(C)(CNC(=O)NC1CC=CC1)c1cccc(Cl)c1` (centres unmarked) [Example 30, 1-[2-(3-chlorophenyl)-2-methoxy-propyl]-3-cyclopent-3-en-1-yl-urea]: the pEC50 was 5.49.

As for `COC(C)(CNC(=O)Nc1cccc(C)c1)c1cccc(Cl)c1` (centres unmarked) [Example 6, 1-[2-(3-chlorophenyl)-2-methoxy-propyl]-3-(m-tolyl)urea], the pEC50 is 5.62.

As for `N#CCOC(CNC(=O)CC1CCCC1)c1cccc(Cl)c1` (centres unmarked) [Example 73, N-[2-(3-chlorophenyl)-2-(cyanomethoxy)ethyl]-2-cyclopentyl-acetamide], the pEC50 was 5.70.

For the molecule `COC(C)(CNC(=O)NCCCc1ccccc1)c1cccc(Cl)c1` (centres unmarked) [Example 32, 1-[2-(3-chlorophenyl)-2-methoxy-propyl]-3-(3-phenylpropyl)urea], the pEC50 was 5.70.

For the molecule `CCOC(CNC(=O)NC1CCCC1)c1cccc(Br)c1` (centres unmarked) [Example 28, 1-[2-(3-bromophenyl)-2-ethoxy-ethyl]-3-cyclopentyl-urea], the pEC50 is 5.59.

Turning to `N#Cc1cccc([C@]2(CNC(=O)C3C(F)(F)C34CCC4)CCO2)c1` (stereo partly drawn) [Example 96, N-[[(2S)-2-(3-cyanophenyl)oxetan-2-yl]methyl]-2,2-difluoro-spiro[2.3]hexane-1-carboxamide], the negative-log EC50 (pEC50) is 5.07.

In the case of `COc1cccc(NC(=O)NC[C@](C)(OC)c2cccc(Cl)c2)c1` [Example 17, 1-[(2R)-2-(3-chlorophenyl)-2-methoxy-propyl]-3-(3-methoxyphenyl)urea], the pEC50 is 5.78.

As to `COC(CNC(=O)[C@H]1C[C@@H]1c1ccccc1)c1cccc(Cl)c1` (mixture of isomers) [Example 20, rac-(1R,2R)-N-[2-(3-chlorophenyl)-2-methoxy-ethyl]-2-phenyl-cyclopropanecarboxamide], the negative logarithm of the EC50 (pEC50) is 6.01.

As to `O=C(NCC(CCO)c1cccc(Cl)c1)[C@H]1C[C@@H]1c1ccccc1` (stereo partly drawn) [Example 92, (1S,2S)—N-[2-(3-chlorophenyl)-4-hydroxy-butyl]-2-phenyl-cyclopropanecarboxamide], the pEC50 is 5.74.

Turning to `O=C(NCC1(c2cccc(OC(F)F)n2)CCO1)C1CC12CCCCC2` (centres unmarked) [Example 123, N-[[2-[6-(difluoromethoxy)-2-pyridyl]oxetan-2-yl]methyl]spiro[2.5]octane-2-carboxamide], the pEC50 is 6.77.

As for `O=C(NCC1(c2cccc(Cl)c2)CCO1)Nc1cccc(Cl)c1` (centres unmarked) [Example 58], the pEC50 was 6.09.

For the molecule `COC(CNC(=O)Cc1cccc2ccccc12)c1ccccc1Cl` (centres unmarked) [Example 36, N-[2-(2-chlorophenyl)-2-methoxy-ethyl]-2-(1-naphthyl)acetamide], the pEC50 was 5.80.

As to `CC(C)(C)O[C@H]1C[C@@H]1C(=O)NC[C@@]1(c2cccc(C#N)c2)CCO1` (mixture of isomers) [Example 114, (1SR,2SR)-2-tert-butoxy-N-[[(2S)-2-(3-cyanophenyl)oxetan-2-yl]methyl]cyclopropanecarboxamide], the pEC50 is 5.12.

As for `COc1cccc(NC(=O)NCC2(c3cccc(C)c3)OCCO2)c1` [Example 27, 1-(3-methoxyphenyl)-3-[[2-(m-tolyl)-1,3-dioxolan-2-yl]methyl]urea], the pEC50 was 5.49.

As to `N#Cc1cccc(C2(CNC(=O)CC3CCCCC3)CCC(=O)O2)c1` (centres unmarked) [Example 90, N-[[2-(3-cyanophenyl)-5-oxo-tetrahydrofuran-2-yl]methyl]-2-cyclohexyl-acetamide], the pEC50 is 6.02.

`N#Cc1cccc([C@@]2(CNC(=O)CC3CC4CCC3C4)CCO2)c1` (stereo partly drawn) [Example 97, N-[[(2R)-2-(3-cyanophenyl)oxetan-2-yl]methyl]-2-norboman-2-yl-acetamide]: the pEC50 is 5.89.

Regarding `CC(F)(F)[C@H]1C[C@@H]1C(=O)NC[C@@]1(c2cccc(C#N)c2)CCO1` (mixture of isomers) [Example 113, (1SR,2SR)—N-[[(2S)-2-(3-cyanophenyl)oxetan-2-yl]methyl]-2-(1,1-difluoroethyl)cyclopropanecarboxamide], the pEC50 is 5.66.

As to `COC(C)(CNC(=O)NC1COC2(CCCC2)C1)c1cccc(Cl)c1` (centres unmarked) [Example 13, 1-[2-(3-chlorophenyl)-2-methoxy-propyl]-3-(1-oxaspiro[4.4]nonan-3-yl)urea], the pEC50 was 5.45.

Take `O=C(NCC1(c2ccnc(OC(F)F)c2)CCO1)[C@H]1CC12CCCCC2` (stereo in doubt) [Example 122, N-[[2-[2-(difluoromethoxy)-4-pyridyl]oxetan-2-yl]methyl]spiro[2.5]octane-2-carboxamide]: the pEC50 is 6.41.

As to `N#Cc1cccc([C@@]2(CNC(=O)[C@H]3C[C@@H]3c3ccccc3)CCO2)c1` [Example 55, (1S,2S)-N-[[(2R)-2-(3-cyanophenyl)oxetan-2-yl]methyl]-2-phenyl-cyclopropanecarboxamide], the pEC50 was 6.10.
